Results reported in US20260138990A1, “TRICYCLIC FUSED IMIDAZOLE COMPOUNDS AS CD38 MODULATORS AND USES THEREOF” (AEOVIAN PHARMACEUTICALS, INC., priority 2023, published 2026).

Key:
human CD38 = target: T1, human CD38 (Homo sapiens, UniProt P28907); assay: NAD+ cyclase activity assay with human recombinant CD38 protein (ε-NAD fluorescence); format: biochemical; conditions: 1.9 nM human CD38, substrate ε-NAD, 30 min preincubation, fluorescence 300/410 nm
T1 construct: purchased Bio-Techne GmbH AVI2404
T1 sequence (P28907 1-300): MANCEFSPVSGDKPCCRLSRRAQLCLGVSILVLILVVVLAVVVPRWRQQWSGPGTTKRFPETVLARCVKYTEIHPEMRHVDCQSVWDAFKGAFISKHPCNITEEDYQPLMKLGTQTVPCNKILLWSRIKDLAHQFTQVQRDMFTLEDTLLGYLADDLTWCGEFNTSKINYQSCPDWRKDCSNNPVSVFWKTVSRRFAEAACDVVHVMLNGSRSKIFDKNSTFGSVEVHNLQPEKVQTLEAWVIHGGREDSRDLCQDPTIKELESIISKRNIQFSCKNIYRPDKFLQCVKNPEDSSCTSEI
How it was run: (§1)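 Twelve-point threefold compound dilutions were given 30 min at room temperature with 0.6 nM mouse or 1.9 nM human CD38 before […] ε-NAD was added (pH 7.5 HEPES/sucrose/Tween buffer). The rate came from the linear-phase slope of ex 300/em 410 nm fluorescence against vehicle and no-CD38 controls.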

mouse CD38 = target: T2, mouse CD38 (Mus musculus, UniProt P56528); assay: NAD+ cyclase activity assay with mouse recombinant CD38 protein (ε-NAD fluorescence); format: biochemical; conditions: 0.6 nM mouse CD38, substrate ε-NAD, 30 min preincubation, fluorescence 300/410 nm
T2 construct: purchased Bio-Techne GmbH 4947-AC
T2 sequence (P56528 1-304): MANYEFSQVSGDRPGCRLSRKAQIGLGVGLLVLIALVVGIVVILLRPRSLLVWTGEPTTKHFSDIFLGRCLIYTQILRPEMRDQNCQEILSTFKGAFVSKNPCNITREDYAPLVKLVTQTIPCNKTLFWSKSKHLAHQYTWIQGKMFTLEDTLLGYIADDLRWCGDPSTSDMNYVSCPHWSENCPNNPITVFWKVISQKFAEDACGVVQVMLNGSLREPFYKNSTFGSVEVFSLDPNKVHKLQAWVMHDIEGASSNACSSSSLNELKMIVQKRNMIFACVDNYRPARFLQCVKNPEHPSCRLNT
How it was run: as §1

## COCC1COc2ncc(NC(=O)c3ccc4c(c3)-c3cncn3CCO4)cc2O1 (stereo not shown) [Compound 145A, N-(2-(Methoxymethyl)-2,3-dihydro-[1,4]dioxino[2,3-b]pyridin-7-yl)-5,6-dihydrobenzo[f]imidazo[1,5-d][1,4]oxazepine-10-carboxamide]
Human CD38
  IC50: < 30 nM
Mouse CD38
  IC50: 1 to 10 nM

## CS(=O)(=O)C1CCC(NC(=O)c2ccc3c(c2)-c2cncn2CCO3)CC1 (stereo not shown) [Compound 146A, N-(4-(Methylsulfonyl)cyclohexyl)-5,6-dihydrobenzo[f]imidazo[1,5-d][1,4]oxazepine-10-carboxamide]
Human CD38
  IC50: 30 to 100 nM
Mouse CD38
  IC50: 10 to 100 nM

## O=C(N[C@H]1CC[C@H](O[C@H]2C[C@@H](F)C2)CC1)c1ccc2c(c1)-c1cncn1CCO2 [Compound 147A, N-((1r,4r)-4-((1s,3s)-3-Fluorocyclobutoxy)cyclohexyl)-5,6-dihydrobenzo[f]imidazo[1,5-d][1,4]oxazepine-10-carboxamide]
Human CD38
  IC50: < 30 nM
Mouse CD38
  IC50: 1 to 10 nM

## O=C(N[C@H]1CC[C@H](O[C@H]2C[C@H](F)C2)CC1)c1ccc2c(c1)-c1cncn1CCO2 [Compound 148A, N-((1r,4r)-4-((1r,3r)-3-Fluorocyclobutoxy)cyclohexyl)-5,6-dihydrobenzo[f]imidazo[1,5-d][1,4]oxazepine-10-carboxamide]
Human CD38
  IC50: < 30 nM
Mouse CD38
  IC50: 1 to 10 nM

## O=C(N[C@H]1CC[C@@H](O[C@H]2C[C@@H](F)C2)CC1)c1ccc2c(c1)-c1cncn1CCO2 [Compound 149A, N-((1s,4s)-4-((1s,3s)-3-Fluorocyclobutoxy)cyclohexyl)-5,6-dihydrobenzo[f]imidazo[1,5-d][1,4]oxazepine-10-carboxamide]
Human CD38
  IC50: 100 to 1000 nM
Mouse CD38
  IC50: 10 to 100 nM

## O=C(N[C@H]1CC[C@@H](O[C@H]2C[C@H](F)C2)CC1)c1ccc2c(c1)-c1cncn1CCO2 [Compound 150A, N-((1s,4s)-4-((1r,3r)-3-Fluorocyclobutoxy)cyclohexyl)-5,6-dihydrobenzo[f]imidazo[1,5-d][1,4]oxazepine-10-carboxamide]
Human CD38
  IC50: 100 to 1000 nM
Mouse CD38
  IC50: > 100 nM

## O=C(NC1CCCC(C(F)(F)F)C1)c1ccc2c(c1)-c1cncn1CCO2 (stereo not shown) [Compound 151A, N-(3-(Trifluoromethyl)cyclohexyl)-5,6-dihydrobenzo[f]imidazo[1,5-d][1,4]oxazepine-10-carboxamide]
Human CD38
  IC50: < 30 nM
Mouse CD38
  IC50: 1 to 10 nM

## O=C(N[C@H]1CC[C@H](OC2CC(F)(F)C2)CC1)c1ccc2c(c1)-c1cncn1CCO2 [Compound 152A, N-((1r,4r)-4-(3,3-Difluorocyclobutoxy)cyclohexyl)-5,6-dihydrobenzo[f]imidazo[1,5-d][1,4]oxazepine-10-carboxamide]
Human CD38
  IC50: < 30 nM
Mouse CD38
  IC50: 1 to 10 nM

## O=C(N[C@H]1CC[C@@H](OC2CC(F)(F)C2)CC1)c1ccc2c(c1)-c1cncn1CCO2 [Compound 153A, N-((1s,4s)-4-(3,3-Difluorocyclobutoxy)cyclohexyl)-5,6-dihydrobenzo[f]imidazo[1,5-d][1,4]oxazepine-10-carboxamide]
Human CD38
  IC50: 100 to 1000 nM
Mouse CD38
  IC50: 10 to 100 nM

## O=C(NC1CCC(F)(F)CC1)c1cc2c(c(F)c1F)OCCn1cncc1-2 [Compound 154A, N-(4,4-Difluorocyclohexyl)-8,9-difluoro-5,6-dihydrobenzo[f]imidazo[1,5-d][1,4]oxazepine-10-carboxamide]
Human CD38
  IC50: < 30 nM
Mouse CD38
  IC50: < 1 nM

## O=C(N[C@H]1CC[C@H](OCC(F)(F)F)CC1)c1cc(F)c2c(c1)-c1cncn1CCO2 [Compound 155A, 8-Fluoro-N-((1r,4r)-4-(2,2,2-trifluoroethoxy)cyclohexyl)-5,6-dihydrobenzo[f]imidazo[1,5-d][1,4]oxazepine-10-carboxamide]
Human CD38
  IC50: < 30 nM
Mouse CD38
  IC50: < 1 nM

## O=C(N[C@H]1CC[C@@H](OCC(F)(F)F)CC1)c1cc(F)c2c(c1)-c1cncn1CCO2 [Compound 156A, 8-Fluoro-N-((1s,4s)-4-(2,2,2-trifluoroethoxy)cyclohexyl)-5,6-dihydrobenzo[f]imidazo[1,5-d][1,4]oxazepine-10-carboxamide]
Human CD38
  IC50: 30 to 100 nM
Mouse CD38
  IC50: 10 to 100 nM

## O=C(N[C@H]1CC[C@H](OCC(F)(F)F)CC1)c1cc(Cl)c2c(c1)-c1cncn1CCO2 [Compound 157A, 8-Chloro-N-((1r,4r)-4-(2,2,2-trifluoroethoxy)cyclohexyl)-5,6-dihydrobenzo[f]imidazo[1,5-d][1,4]oxazepine-10-carboxamide]
Human CD38
  IC50: < 30 nM
Mouse CD38
  IC50: < 1 nM

## O=C(N[C@H]1CC[C@@H](OCC(F)(F)F)CC1)c1cc(Cl)c2c(c1)-c1cncn1CCO2 [Compound 158A, 8-Chloro-N-((1s,4s)-4-(2,2,2-trifluoroethoxy)cyclohexyl)-5,6-dihydrobenzo[f]imidazo[1,5-d][1,4]oxazepine-10-carboxamide]
Human CD38
  IC50: 30 to 100 nM
Mouse CD38
  IC50: 1 to 10 nM

## O=C(NC1CC2(CCC2)C1)c1cc(F)c2c(c1)-c1cncn1CCO2 [Compound 159A, 8-Fluoro-N-(spiro[3.3]heptan-2-yl)-5,6-dihydrobenzo[f]imidazo[1,5-d][1,4]oxazepine-10-carboxamide]
Human CD38
  IC50: < 30 nM
Mouse CD38
  IC50: < 1 nM

## O=C(NC1CC2(COC2)C1)c1cc(F)c2c(c1)-c1cncn1CCO2 [Compound 160A, 8-Fluoro-N-(2-oxaspiro[3.3]heptan-6-yl)-5,6-dihydrobenzo[f]imidazo[1,5-d][1,4]oxazepine-10-carboxamide]
Human CD38
  IC50: 30 to 100 nM
Mouse CD38
  IC50: 1 to 10 nM

## O=C(NC1CCCC(C(F)(F)F)C1)c1cc(F)c2c(c1)-c1cncn1CCO2 (stereo not shown) [Compound 161A, 8-Fluoro-N-(3-(trifluoromethyl)cyclohexyl)-5,6-dihydrobenzo[f]imidazo[1,5-d][1,4]oxazepine-10-carboxamide]
Human CD38
  IC50: < 30 nM
Mouse CD38
  IC50: 1 to 10 nM

## CC1(NC(=O)c2cc(F)c3c(c2)-c2cncn2CCO3)CCCCC1 [Compound 162A, 8-Fluoro-N-(1-methylcyclohexyl)-5,6-dihydrobenzo[f]imidazo[1,5-d][1,4]oxazepine-10-carboxamide]
Human CD38
  IC50: 30 to 100 nM
Mouse CD38
  IC50: 10 to 100 nM

## CC1(NC(=O)c2cc(Cl)c3c(c2)-c2cncn2CCO3)CCCCC1 [Compound 163A, 8-Chloro-N-(1-methylcyclohexyl)-5,6-dihydrobenzo[f]imidazo[1,5-d][1,4]oxazepine-10-carboxamide]
Human CD38
  IC50: < 30 nM
Mouse CD38
  IC50: 1 to 10 nM

## O=C(NC1CCC(CC(F)(F)F)CC1)c1cc(F)c2c(c1)-c1cncn1CCO2 (stereo not shown) [Compound 164A, 8-Fluoro-N-(4-(2,2,2-trifluoroethyl)cyclohexyl)-5,6-dihydrobenzo[f]imidazo[1,5-d][1,4]oxazepine-10-carboxamide]
Human CD38
  IC50: < 30 nM
Mouse CD38
  IC50: 1 to 10 nM

## O=C(NC1CCC(CC(F)(F)F)CC1)c1cc(Cl)c2c(c1)-c1cncn1CCO2 (stereo not shown) [Compound 165A, 8-Chloro-N-(4-(2,2,2-trifluoroethyl)cyclohexyl)-5,6-dihydrobenzo[f]imidazo[1,5-d][1,4]oxazepine-10-carboxamide]
Human CD38
  IC50: < 30 nM
Mouse CD38
  IC50: 1 to 10 nM

## O=C(N[C@H]1CC[C@H](OC2CC(F)(F)C2)CC1)c1cc(F)c2c(c1)-c1cncn1CCO2 [Compound 166A, N-((1r,4r)-4-(3,3-Difluorocyclobutoxy)cyclohexyl)-8-fluoro-5,6-dihydrobenzo[f]imidazo[1,5-d][1,4]oxazepine-10-carboxamide]
Human CD38
  IC50: < 30 nM
Mouse CD38
  IC50: 1 to 10 nM

## O=C(N[C@H]1CC[C@@H](OC2CC(F)(F)C2)CC1)c1cc(F)c2c(c1)-c1cncn1CCO2 [Compound 167A, N-((1s,4s)-4-(3,3-Difluorocyclobutoxy)cyclohexyl)-8-fluoro-5,6-dihydrobenzo[f]imidazo[1,5-d][1,4]oxazepine-10-carboxamide]
Human CD38
  IC50: 100 to 1000 nM
Mouse CD38
  IC50: 10 to 100 nM

## CC(C)(CO[C@H]1CC[C@@H](NC(=O)c2cc(F)c3c(c2)-c2cncn2CCO3)CC1)C(F)(F)F [Compound 168A, 8-Fluoro-N-((1s,4s)-4-(3,3,3-trifluoro-2,2-dimethylpropoxy)cyclohexyl)-5,6-dihydrobenzo[f]imidazo[1,5-d][1,4]oxazepine-10-carboxamide]
Human CD38
  IC50: 100 to 1000 nM
Mouse CD38
  IC50: > 100 nM

## CC1(NC(=O)c2cc(F)c3c(c2)-c2cncn2CCO3)CCS(=O)(=O)C1 (stereo not shown) [Compound 169A, 8-Fluoro-N-(3-methyl-1,1-dioxidotetrahydrothiophen-3-yl)-5,6-dihydrobenzo[f]imidazo[1,5-d][1,4]oxazepine-10-carboxamide]
Human CD38
  IC50: 30 to 100 nM
Mouse CD38
  IC50: 10 to 100 nM

## CC(C)(CO[C@H]1CC[C@H](NC(=O)c2cc(Cl)c3c(c2)-c2cncn2CCO3)CC1)C(F)(F)F [Compound 170A, 8-Chloro-N-((1r,4r)-4-(3,3,3-trifluoro-2,2-dimethylpropoxy)cyclohexyl)-5,6-dihydrobenzo[f]imidazo[1,5-d][1,4]oxazepine-10-carboxamide]
Human CD38
  IC50: 30 to 100 nM
Mouse CD38
  IC50: 1 to 10 nM
